Experiments:
Type in all cases: physicochemical
[1] = Equilibrium desiccator analysis at 75-80% RH; settings: 75 to 80% RH at 18-23° C., after 1 h
[2] = Process hold-point stability (purity profile)
Experimental: An optimized non-aqueous procedure is provided below and shown in Scheme 4. • 1. Add apomorphine hydrochloride (1.0 wt), ascorbic acid-6-palmitate (0.01 wt), IPA (30 vol) and stir at 18-23° C. • 2. Vacuum/nitrogen purge the vessel 3× at 18-23° C. and place under a flow of nitrogen. • 3. Heat the slurry to 60-65° C. • 4. Add 3-amino-1-propanol (1.1 eq, 0.25 vol) maintaining 60-70° C. (target 60-65° C.). • 5. As required, cool the reaction mixture to 60-65° C. […] Stir for 15-20 minutes and check for full dissolution. • 7. On full dissolution, clarify the reaction mixture through a ≦1 μm filter and line rinse with IPA (3 vol) at 60-65° C. (Note: the reaction solution is highly unstable to air while hot, therefore total exclusion of air is required.) • 8. Concentrate the reaction mixture under reduced pressure to approximately 10 vol maintaining 55-65° C. • 9. […] Cool the slurry to 68-71° C. and age for 1 h (crystallization is expected during the cool down period approximately 72° C.). • 11. Slow the stirring for the remainder of the preparation to the minimum effective rate and check for crystallization: if crystallization has not occurred, seed the reaction with 0.1 wt % of seeds and age for 1 h. • 12. Cool the slurry to 18-23° C. over 5-6 h at an approximately constant rate. • 13. Age the slurry at 18-23° C. for 2-16 h. • 14. […]

[3] = Stability of the reaction mixture at reflux in IPA with/without ascorbic acid-6-palmitate (HPLC); settings: solution at reflux with ascorbic acid-6-palmitate
Experimental: In this case, the base was added under reflux and the procedure compared with and without ascorbic acid-6-palmitate as an antioxidant (Table 7).

CN1CCc2cccc3c2[C@H]1Cc1ccc(O)c(O)c1-3 [A0505-110-D1, apomorphine free base]
Weight increase [1]: 2.0 % w/w

CN1CCc2cccc3c2C1Cc1ccc(O)c(O)c1-3 (stereo not shown) [A0513-98-01]
Change in purity profile ([2]; reaction mixture held 2 h at reflux (83° C.)): no significant change
% area: RRT 1.00 [3]: 99.83 % area
% area: RRT 1.25 [3]: 0.04 % area
% area: RRT 1.71 [3]: 0.06 % area
% area: RRT 1.76 [3]: 0.04 % area

CC(C)O.CN1CCc2cccc3c2C1Cc1ccc(O)c(O)c1-3 (stereo not shown) [A0513-126, apomorphine free base IPA solvate]
Change in purity profile of the material isolated ([2]; distillation over 6 h at 60-65° C.): no significant change
